Experimental data: US20180000085A1, “USE OF PICOLINAMIDE COMPOUNDS WITH FUNGICIDAL ACTIVITY” (DOW AGROSCIENCES LLC, priority 2014, published 2018)

How the values were obtained:
Type in all cases: in vivo
Puccinia triticina = test: Wheat brown rust (PUCCRT) disease control on wheat seedlings; conditions: for PUCCRT 1DP disease control rating, LV activity at 125.1 g/H / PUCCRT 3DC disease control rating, LV activity at 125.1 g/H / PUCCRT 1DP, LV activity at 125.1 g/H (% Control rating) / PUCCRT 3DC, LV activity at 125.1 g/H (% Control rating): low volume application; for PUCCRT 1DP disease control rating, LV activity at 125.1 g/H: 1 day protectant; for PUCCRT 3DC disease control rating, LV activity at 125.1 g/H: 3 day curative
Phakopsora pachyrhizi = test: Asian soybean rust (PHAKPA) disease control; parameters: key: A: > 80; B: ≤ 80; C: Not Tested; D: No Activity Observed in the Reported Assay; conditions: 25 ppm; for PHAKPA disease control, 1DP: 1 Day Protectant; for PHAKPA disease control, 3DC: 3 Day Curative
Zymoseptoria tritici = test: Leaf blotch of wheat (SEPTTR) disease control on wheat seedlings; conditions: for SEPTTR 1DP disease control rating, LV activity at 125.1 g/H / SEPTTR 3DC disease control rating, LV activity at 125.1 g/H / SEPTTR 1DP, LV activity at 125.1 g/H (% Control rating) / SEPTTR 3DC, LV activity at 125.1 g/H (% Control rating): low volume application; for SEPTTR 1DP disease control rating, LV activity at 125.1 g/H: 1 day protectant; for SEPTTR 3DC disease control rating, LV activity at 125.1 g/H: 3 day curative
[1] = HV activity at 100 ppm, 1 Day Protectant, wheat
[2] = HV activity at 100 ppm, 3 Day Curative, wheat
[3] = high volume application, 100 ppm, 1DP
[4] = high volume application, 100 ppm, 3DC

| SMILES | PUCCRT 1DP disease control rating, LV activity at 125.1 g/H (Puccinia triticina) | PUCCRT 3DC disease control rating, LV activity at 125.1 g/H (Puccinia triticina) | PHAKPA disease control, 1DP (Phakopsora pachyrhizi) | PHAKPA disease control, 3DC (Phakopsora pachyrhizi) | SEPTTR 1DP disease control rating, LV activity at 125.1 g/H (Zymoseptoria tritici) | SEPTTR 3DC disease control rating, LV activity at 125.1 g/H (Zymoseptoria tritici) | PUCCRT 1DP, LV activity at 125.1 g/H (% Control rating) (Puccinia triticina; 1 Day Protectant) | PUCCRT 3DC, LV activity at 125.1 g/H (% Control rating) (Puccinia triticina; 3 Day Curative) | SEPTTR 1DP, LV activity at 125.1 g/H (% Control rating) (Zymoseptoria tritici; 1 Day Protectant) | SEPTTR 3DC, LV activity at 125.1 g/H (% Control rating) (Zymoseptoria tritici; 3 Day Curative) | also measured |
| --- | --- | --- | --- | --- | --- | --- | --- | --- | --- | --- | --- |
| COc1ccnc(C(=O)NC(C)C(=O)OC(C)C(Oc2ccccc2)C2CCCCC2)c1OC(C)=O (stereo not drawn) [Cmpd 908] | A (> 80) | A (> 80) | A (> 80) | B (≤ 80) | A (> 80) | A (> 80) | – | – | – | – | – |
| COc1ccnc(C(=O)N[C@@H](C)C(=O)O[C@@H](C)[C@H](Oc2ccccc2)c2ccc(F)cc2)c1OC(C)=O [Cmpd 925] | A (> 80) | A (> 80) | A (> 80) | B (≤ 80) | A (> 80) | A (> 80) | – | – | – | – | – |
| COc1ccnc(C(=O)N[C@@H](C)C(=O)O[C@@H](C)[C@@H](Cc2ccccc2)Oc2ccccc2)c1OCOC(C)=O [Cmpd 550] | – | – | B (≤ 80) | B (≤ 80) | – | – | A (> 80) | A (> 80) | A (> 80) | A (> 80) | – |
| CCC(CC)[C@@H](Oc1ccc(F)cc1)[C@H](C)OC(=O)[C@H](C)NC(=O)c1nccc(OC)c1OC(C)=O [Cmpd 598] | – | – | A (> 80) | B (≤ 80) | – | – | A (> 80) | A (> 80) | A (> 80) | A (> 80) | – |
| COc1ccnc(C(=O)NC(C)C(=O)OC(C)C(Oc2cccc(F)c2)C2CCCC2)c1OCOC(C)=O (stereo not drawn) [Cmpd 909] | A (> 80) | A (> 80) | A (> 80) | B (≤ 80) | A (> 80) | A (> 80) | – | – | – | – | – |
| COc1ccnc(C(=O)N[C@@H](C)C(=O)O[C@@H](C)[C@H](Oc2ccccc2Cl)c2ccccc2)c1OCOC(C)=O [Cmpd 639] | – | – | A (> 80) | B (≤ 80) | – | – | A (> 80) | A (> 80) | B (≤ 80) | A (> 80) | – |
| COc1ccnc(C(=O)NC(C)C(=O)OC(C)C(Oc2ccc(C)cc2)C2CCCC2)c1OCOC(C)=O (stereo not drawn) [Cmpd 916] | A (> 80) | A (> 80) | A (> 80) | D | A (> 80) | B (≤ 80) | – | – | – | – | – |
| CCC(CC)[C@H](Oc1cccc(F)c1)[C@H](C)OC(=O)[C@H](C)NC(=O)c1nccc(OC)c1OCOC(C)=O [Cmpd 668] | A (> 80) | A (> 80) | B (≤ 80) | B (≤ 80) | A (> 80) | A (> 80) | – | – | – | – | – |
| CCC(CC)[C@@H](Oc1ccccc1Cl)[C@H](C)OC(=O)[C@H](C)NC(=O)c1nccc(OC)c1OCOC(C)=O [Cmpd 593] | – | – | A (> 80) | B (≤ 80) | – | – | A (> 80) | A (> 80) | A (> 80) | A (> 80) | – |
| CCCOC[C@@H](Oc1ccccc1)[C@H](C)OC(=O)[C@H](C)NC(=O)c1nccc(OC)c1OC(C)=O [Cmpd 474] | – | – | B (≤ 80) | B (≤ 80) | – | – | A (> 80) | A (> 80) | B (≤ 80) | A (> 80) | – |
| CC[C@@H](CCC(C)C)[C@H](Oc1ccccc1)[C@H](C)OC(=O)[C@H](C)NC(=O)c1nccc(OC)c1OCOC(C)=O [Cmpd 502] | – | – | A (> 80) | B (≤ 80) | – | – | A (> 80) | A (> 80) | A (> 80) | A (> 80) | – |
| COc1ccnc(C(=O)N[C@@H](C)C(=O)O[C@@H](C)[C@@H](CC(C)C)Oc2cccc(F)c2)c1O [Cmpd 1048] | – | – | – | – | – | – | – | – | – | – | HV activity at 100 ppm PUCCRT 1DP (disease control rating) (Puccinia triticina; HV application, 100 ppm, 1 Day Protectant, wheat brown rust): A (> 80); HV activity at 100 ppm PUCCRT 3DC (disease control rating) (Puccinia triticina; HV application, 100 ppm, 3 Day Curative, wheat brown rust): A (> 80); HV activity at 100 ppm SEPTTR 1DP (disease control rating) (Zymoseptoria tritici; HV application, 100 ppm, 1 Day Protectant, wheat leaf blotch): B (≤ 80); HV activity at 100 ppm SEPTTR 3DC (disease control rating) (Zymoseptoria tritici; HV application, 100 ppm, 3 Day Curative, wheat leaf blotch): A (> 80) |
| CC[C@H](Cc1ccccc1)[C@@H](OCC(C)C)[C@H](C)OC(=O)[C@H](C)NC(=O)c1nccc(OC)c1O [Cmpd 293, (S)-(2S,3R,4R)-4-benzyl-3-isobutoxyhexan-2-yl-2-(3-hydroxy-4-methoxypicolinamido)propanoate] | – | – | – | – | – | – | – | – | – | – | PUCCRT disease control, 1DP (Puccinia triticina; [1]): A (> 80); PUCCRT disease control, 3DC (Puccinia triticina; [2]): B (≤ 80); PUCCRT 1DP disease control rating, HV activity (Puccinia triticina; HV application at 100 ppm, 1 Day Protectant, wheat brown rust): A (> 80); PUCCRT 3DC disease control rating, HV activity (Puccinia triticina; HV application at 100 ppm, 3 Day Curative, wheat brown rust): B (≤ 80); PUCCRT 1DP, HV activity at 100 ppm (% control rating) (Puccinia triticina; [3]): A (> 80); PUCCRT 3DC, HV activity at 100 ppm (% control rating) (Puccinia triticina; [4]): B (≤ 80); SEPTTR disease control, 1DP (Zymoseptoria tritici; [1]): A (> 80); SEPTTR disease control, 3DC (Zymoseptoria tritici; [2]): B (≤ 80); SEPTTR 1DP disease control rating, HV activity (Zymoseptoria tritici; HV application at 100 ppm, 1 Day Protectant, wheat leaf blotch): A (> 80); SEPTTR 3DC disease control rating, HV activity (Zymoseptoria tritici; HV application at 100 ppm, 3 Day Curative, wheat leaf blotch): B (≤ 80); SEPTTR 1DP, HV activity at 100 ppm (% control rating) (Zymoseptoria tritici; [3]): A (> 80); SEPTTR 3DC, HV activity at 100 ppm (% control rating) (Zymoseptoria tritici; [4]): B (≤ 80) |
| CC[C@H](Cc1ccc(OC)cc1)[C@@H](Oc1ccccc1)[C@H](C)OC(=O)[C@H](C)NC(=O)c1nccc(OC)c1OCOC(C)=O [Cmpd 470] | – | – | – | – | – | – | A (> 80) | A (> 80) | A (> 80) | A (> 80) | – |
| COc1ccnc(C(=O)N[C@@H](C)C(=O)O[C@@H](C)[C@H](Oc2ccc(Cl)cc2Cl)c2ccccc2)c1OC(C)=O [Cmpd 635] | – | – | – | – | – | – | A (> 80) | B (≤ 80) | A (> 80) | A (> 80) | – |
